Results from patent publication US6191144A, “Method of using angiotensin converting enzyme inhibitor to stimulate angiogenesis” (priority 1999, dated 2001).
Entries after “also recorded” stand apart in the source; their conditions may differ.

What was measured:
[1] = system: B2-receptor; conditions: B2-receptor antagonist; cited from earlier work
[2] = system: rabbit ischemic hindlimb model; test: Angiographic score of collateral development; conditions: D40; medial thigh
[3] = system: coronary microvessels; conditions: Greiss reaction (Circulation, 95:176-182); cited from earlier work
[4] = system: Angiotensin Converting Enzyme; test: Serum ACE activity (Sigma kit, FAPGG substrate) in treated ischemic rabbits; format: in vivo, New Zealand White rabbits; conditions: for residual ACE activity in serum (D14 serum activity/D10 serum activity): D14, 24 hours after injection, daily s.c. captopril 25 mg or quinaprilat 2 mg; for serum ACE activity as percentage of basal value: D40, after 5 days of discontinuation of injections; for serum ACE inhibition at any time: daily s.c. treatment, inferred from 24 hour trough at D14
Description: The serum ACE activity in the blood samples obtained from ear vein was determined using a kit obtained from Sigma (St. Louis, Mo.). The procedure used is a spectrophotometric method utilizing the synthetic tripeptide substrate N-[3-(2-furyl)acryloyl]-L-phenylalanylglycylglycine (FAPGG). ACE catalyzes hydrolysis of FAPGG to furylacryloylphenylalanine (FAP) and glycylglycine, which results in a decrease in absorbance at a wavelength of 340 nm. The ACE activity in the sample was determined by comparing the sample reaction rate to that obtained with an ACE calibrator.
The efficiency of the treatment is calculated as the percentage of the D10 serum activity according to the ratio: D14 serum activity/D10 serum activity.
For the latter drug, tablets were daily dissolved in saline serum and the resulting suspension was injected. Acetylcholine chloride, serotonin […] sulfate, and sodium nitroprusside were all purchased from Sigma Chemical Co., St. Louis, Mo.

[5] = system: Angiotensin Converting Enzyme; test: Tissue ACE activity in thigh muscle homogenate of treated rabbits; format: in vivo, New Zealand White rabbits; conditions: for mean tissue ACE activity in thigh muscles: additional rabbits treated D10 up to D35; for residual tissue ACE activity, % of non-treated tissue activity: thigh muscle, treated D10 up to D35
Text: Then, they were sacrificed, and muscles harvested for tissue in order to measure tissue ACE activity.
In order to determine the tissue ACE activity, muscles from the additional group were harvested, weighed, and homogenized in PBS. The obtained solution was used as a substrate for the ACE determination kit (Sigma, St. Louis, Mo.), and the result, divided by sample weight, is expressed as international units per gram of tissue (Ul/g).

[6] = system: rabbit ischemic hindlimb model; test: Capillary density in ischemic hindlimb muscles; conditions: D40; medial thigh muscles of ischemic limb
[7] = system: rabbit ischemic hindlimb model; test: Vascular resistance ratio at internal iliac artery after vasoactive agents; conditions: D40
[8] = system: rabbit ischemic hindlimb model; conditions: D40 vs control
Description: Angiogenesis following resection of femoral artery was assessed at Day 10 (D10) and D40 post-operatively on functional (blood pressure ratio of ischemic to healthy limb, vasoreactivity and resistance) and morphological (angiography and capillary density) criteria.
The animal model was a previously described rabbit ischemic hindlimb model (J. Clin. Invest. 93:662-670). […] A longitudinal incision was then performed, extending from the inguinal ligament to a point just proximal to the patella. Through this incision, the femoral artery and each of its branches were dissected free along its entire length. After dissecting the popliteal and saphenous arteries distally, the external iliac artery and all of the above arteries were ligated with 4.0 silk (Ethicon, Sommerville, N.J.). Finally, the femoral artery was completely excised from its proximal origin as a branch of the external iliac artery, to the point distally where it bifurcates to form the saphenous and popliteal arteries. Following excision of the femoral artery, retrograde propagation of thrombus leads to occlusion of the external iliac artery. […]
The four groups were investigated at D10 and D40 post-operatively at which time lower limb blood pressure, vasomotor reactivity, and angiographic score were evaluated. […]

[9] = Body weight (Table 1)
[10] = system: rabbit ischemic hindlimb model; test: Vasomotor reactivity: blood flow ratio in internal iliac artery after vasoactive agents; format: in vivo, New Zealand White rabbits; conditions: D40; for blood flow ratio (stimulated flow/basal flow), acetylcholine: acetylcholine 1.5 μg/min/kg intra-arterial; for blood flow ratio (stimulated flow/basal flow), nitroprusside: nitroprusside 1.5 μg/min/kg intra-arterial; for blood flow ratio (stimulated flow/basal flow), serotonin: serotonin 1.5 μg/min/kg intra-arterial
Description: After measurement of lower limb blood pressure, a 3 Fr., end-hole infusion catheter (Tracker-i 8 TM, Target Therapeutics, San Jose, Calif.) was inserted into the left common carotid artery and advanced to the abdominal aorta. A 0.018 inch Doppler guidewire (Cardiometrics, Inc., Mountain View, Calif.) was advanced through the 3 Fr. infusion to the proximal segment of the internal iliac artery supplying the ischemic limb.
Vascular reactivity was assessed in this study measuring the variation of blood flow induced by vasodilators in the internal iliac artery of the ischemic limb. Blood flow was calculated from the Doppler measurements, using the formula QD =(πd^2 /4)(0.5×APV), where QD =Doppler-derived time average flow, d=vessel diameter, and APV=time average of the spectral peak velocity (Am. J Physiol., 1994;267:H1263-H1271). The mean velocity was estimated as 0.5×APV by assuming a time-averaged parabolic velocity profile across the vessel. […] The angiographic diameter of main collateral artery was determined using an automated edge-detection system that has been previously validated in vivo (Am. J Physiol., 1994;267:H1263-H1271). […] Center-lines were traced manually for a 10-mm long segment beginning immediately distal to the tip of the Doppler wire. The contours were subsequently detected automatically on the basis of the weighted sum of first and second derivative functions applied to the digitized brightness information. The vascular diameter was then measured at the site of the Doppler sample volume, i.e., 5 mm distal to the wire tip (Am. J Physiol., 1994;267:H1263-H1271). Cross-sectional area was calculated assuming a circular lumen.
The results of calculation for blood flow are expressed as the ratio of blood flow after vasodilator injection to basal blood flow, measured just before the injection.

[11] = system: rabbit ischemic hindlimb model; test: Lower-limb blood pressure ratio (ischemic/normal limb); format: in vivo, New Zealand White rabbits; conditions: D40
Description: The animal model was a previously described rabbit ischemic hindlimb model (J. Clin. Invest. 93:662-670). […] A longitudinal incision was then performed, extending from the inguinal ligament to a point just proximal to the patella. Through this incision, the femoral artery and each of its branches were dissected free along its entire length. After dissecting the popliteal and saphenous arteries distally, the external iliac artery and all of the above arteries were ligated with 4.0 silk (Ethicon, Sommerville, N.J.). Finally, the femoral artery was completely excised from its proximal origin as a branch of the external iliac artery, to the point distally where it bifurcates to form the saphenous and popliteal arteries. Following excision of the femoral artery, retrograde propagation of thrombus leads to occlusion of the external iliac artery. Blood flow to the ischemic limb consequently becomes dependent upon collateral vessels issuing from the internal iliac artery.
Animals with limb ischemia were randomly divided into 4 groups. […] The ischemic control group consisted of 6 rabbits receiving no medication of any kind.

[12] = Day 10 (basal value, before treatment)
[13] = Day 40 (5 days after discontinuation)

| Molecule | angiographic score [2] [%] | NO accumulation [3] | residual ACE activity in serum (D14 serum activity/D10 serum activity) [4] [%] | serum ACE activity as percentage of basal value [4] [%] | Serum ACE Activity [4, 12] [U/L] | Serum ACE Activity ([4]; Day 14 (efficiency value)) [U/L] | Serum ACE Activity [4, 13] [U/L] | serum ACE inhibition at any time [4] | mean tissue ACE activity in thigh muscles [5] [Ul/g] | residual tissue ACE activity, % of non-treated tissue activity [5] [%] | capillary density [6] | vascular resistance ratio (after injection/basal), acetylcholine [7] | vascular resistance ratio (after injection/basal), nitroprusside [7] | vascular resistance ratio (after injection/basal), serotonin [7] | stimulation of angiogenesis (functional and morphological criteria) [8] | blood flow ratio (stimulated flow/basal flow), acetylcholine [10] | blood flow ratio (stimulated flow/basal flow), nitroprusside [10] | blood flow ratio (stimulated flow/basal flow), serotonin [10] | ischemic/normal calf systolic blood pressure ratio [11] | further results |
| --- | --- | --- | --- | --- | --- | --- | --- | --- | --- | --- | --- | --- | --- | --- | --- | --- | --- | --- | --- | --- |
| NC(N)=NCCC[C@@H](N)C(=O)N[C@@H](CCCN=C(N)N)C(=O)N1CCC[C@H]1C(=O)N1C[C@H](O)C[C@H]1C(=O)NCC(=O)N[C@@H](Cc1cccs1)C(=O)N[C@@H](CO)C(=O)N1Cc2ccccc2C[C@@H]1C(=O)N1[C@H](C(=O)N[C@@H](CCCN=C(N)N)C(=O)O)C[C@@H]2CCCC[C@@H]21 [Icatibant] | – | – | – | – | – | – | – | – | – | – | – | – | – | – | – | – | – | – | – | effect on cardiac capillary length density induced by ACE inhibition [1]: inhibited |
| C[C@H](CS)C(=O)N1CCC[C@H]1C(=O)O [captopril] | 35.03±0.02 | promotion of NO accumulation | 42.54±0.03 | 92.87±0.04 | 55.94 ± 0.75 | 23.92 ± 0.60 | 51.80 ± 0.80 | higher than 50% | 7.65±1.69 | 61 | 147.2±11.9 /mm^2 | – | – | – | – | – | – | – | – | – |
| C[C@H](N[C@@H](CCc1ccccc1)C(=O)O)C(=O)N1CCC[C@H]1C(=O)O [enalaprilat] | – | promotion of NO accumulation | – | – | – | – | – | – | – | – | – | – | – | – | – | – | – | – | – | – |
| C[C@H](N[C@@H](CCc1ccccc1)C(=O)O)C(=O)N1Cc2ccccc2C[C@H]1C(=O)O [quinaprilat] | 51.19 | – | 41.53±0.02 | 80.71±0.08 | 59.50 ± 1.38 | 24.32 ± 0.46 | 46.40 ± 0.98 | higher than 50% | 1.69±0.70 | 13 | 214.0±6.4 /mm^2 | 0.32±0.03 | 0.28±0.02 | 0.94±0.06 | more developed angiogenesis; also recorded: improvement; also recorded: stimulates angiogenesis in vivo | 3.06±0.25 | 2.94±0.24 | 1.17±0.08 | 0.86±0.03 | Body Weight ([9]; Day 10): 4.19 ± 0.10 kg; Body Weight ([9]; Day 40): 4.54 ± 0.20 kg |
| CCOC(=O)[C@H](CCc1ccccc1)N[C@@H](C)C(=O)N1[C@H](C(=O)O)C[C@@H]2CCC[C@@H]21 [ramipril] | – | promotion of NO accumulation | – | – | – | – | – | – | – | – | – | – | – | – | – | – | – | – | – | – |
| VEGF | 50.88±0.04 | – | – | – | – | – | – | – | – | – | 228.8±9.6 /mm^2 | 0.35±0.03 | 0.29±0.04 | 0.77±0.04 | more developed angiogenesis | 2.72±0.22 | 2.66±0.35 | 1.19±0.09 | 0.74±0.03 | – |
